In this assay the target is GCN2 kinase (Homo sapiens, UniProt Q9P2K8). Description: GCN2 enzyme inhibition assay (Transcreener ADP2 fluorescence polarization). The format is biochemical. To be noted: Enzyme activity for compounds of Formula IV; Ki(app), 280 μM ATP, 25° C. Summed up:
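ADP formation read by Transcreener FP after a 1 h, 25 °C kinase reaction containing 280 μM ATP, 200 μM (RS)7 substrate and 4 nM GCN2, pH 7.5 Tris buffer. Compounds (0–8 μM final) were added 10 min before ATP. Percent inhibition gave IC50 and apparent Ki via tight-binding fit.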
(Fluorescence polarisation rises when a labelled molecule tumbles more slowly, as on binding a larger partner.)

Sequence of GCN2 kinase (Q9P2K8 whole entry): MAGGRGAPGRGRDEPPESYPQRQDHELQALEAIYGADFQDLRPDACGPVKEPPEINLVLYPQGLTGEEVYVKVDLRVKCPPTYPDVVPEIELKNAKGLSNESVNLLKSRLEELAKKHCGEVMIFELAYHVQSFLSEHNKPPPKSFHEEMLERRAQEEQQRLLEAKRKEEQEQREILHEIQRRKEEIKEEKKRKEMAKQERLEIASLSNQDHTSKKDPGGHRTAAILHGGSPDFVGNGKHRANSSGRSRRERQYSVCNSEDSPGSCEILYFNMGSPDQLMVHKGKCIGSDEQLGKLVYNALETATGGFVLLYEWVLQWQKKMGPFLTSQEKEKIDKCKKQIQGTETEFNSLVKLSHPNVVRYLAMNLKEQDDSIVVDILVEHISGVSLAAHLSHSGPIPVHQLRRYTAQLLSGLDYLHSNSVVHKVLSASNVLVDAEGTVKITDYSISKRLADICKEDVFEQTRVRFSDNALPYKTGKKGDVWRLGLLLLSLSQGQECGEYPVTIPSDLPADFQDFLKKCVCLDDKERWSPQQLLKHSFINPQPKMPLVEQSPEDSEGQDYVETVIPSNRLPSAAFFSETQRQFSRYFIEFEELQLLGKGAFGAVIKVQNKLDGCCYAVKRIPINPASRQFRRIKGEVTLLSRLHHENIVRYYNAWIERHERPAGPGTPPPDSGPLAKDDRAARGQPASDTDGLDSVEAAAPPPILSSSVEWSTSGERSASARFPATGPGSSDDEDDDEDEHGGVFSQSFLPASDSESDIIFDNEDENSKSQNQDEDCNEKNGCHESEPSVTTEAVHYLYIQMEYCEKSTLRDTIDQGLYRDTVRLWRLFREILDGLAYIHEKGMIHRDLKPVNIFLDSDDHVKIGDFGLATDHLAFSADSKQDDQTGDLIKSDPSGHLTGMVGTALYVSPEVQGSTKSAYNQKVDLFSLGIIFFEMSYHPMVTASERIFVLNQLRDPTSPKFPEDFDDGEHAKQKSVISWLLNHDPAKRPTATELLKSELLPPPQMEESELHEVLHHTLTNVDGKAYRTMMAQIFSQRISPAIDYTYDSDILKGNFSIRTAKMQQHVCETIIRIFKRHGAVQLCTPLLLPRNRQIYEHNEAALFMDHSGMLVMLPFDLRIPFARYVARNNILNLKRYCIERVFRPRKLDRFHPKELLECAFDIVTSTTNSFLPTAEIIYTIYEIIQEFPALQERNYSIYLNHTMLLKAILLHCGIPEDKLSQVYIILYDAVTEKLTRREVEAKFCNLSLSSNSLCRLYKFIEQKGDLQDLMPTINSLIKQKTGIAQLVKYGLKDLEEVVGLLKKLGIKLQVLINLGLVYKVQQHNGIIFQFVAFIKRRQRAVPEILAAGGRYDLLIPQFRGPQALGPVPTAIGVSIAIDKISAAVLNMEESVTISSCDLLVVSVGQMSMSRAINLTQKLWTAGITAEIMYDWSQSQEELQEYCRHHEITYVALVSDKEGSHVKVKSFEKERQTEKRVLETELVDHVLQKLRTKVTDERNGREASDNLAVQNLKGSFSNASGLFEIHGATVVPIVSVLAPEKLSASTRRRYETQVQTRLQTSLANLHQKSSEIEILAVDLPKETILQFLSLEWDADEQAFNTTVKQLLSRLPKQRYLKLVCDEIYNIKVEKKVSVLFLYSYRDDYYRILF

Compound `CC(=O)NCC1CCN(c2ccnc(-c3cnc4cnc(C(F)(F)F)cn34)n2)C1` (centres unmarked) [IV-537, N-((1-(2-(6-(Trifluoromethyl)imidazo[1,2-a]pyrazin-3-yl)pyrimidin-4-yl)pyrrolidin-3-yl)methyl)acetamide] yielded a Ki of 0.1 to 1 µM. With `CC1(C(N)=O)CCCN(c2ccnc(-c3cnc4cnc(C(F)(F)F)cn34)n2)C1` (centres unmarked) [IV-539, 3-Methyl-1-(2-(6-(trifluoromethyl)imidazo[1,2-a]pyrazin-3-yl)pyrimidin-4-yl)piperidine-3-carboxamide] the figure was 0.1 to 1 µM; with `O=C1NCCC12CCCN(c1ccnc(-c3cnc4cnc(C(F)(F)F)cn34)n1)C2` (centres unmarked) [IV-542, 7-(2-(6-(Trifluoromethyl)imidazo[1,2-a]pyrazin-3-yl)pyrimidin-4-yl)-2,7-diazaspiro[4.5]decan-1-one], 0.1 to 1 µM. With `FC(F)(F)c1cn2c(-c3nccc(N4CCCC(n5cncn5)C4)n3)cnc2cn1` (centres unmarked) [IV-547, 3-(4-(3-(1H-1,2,4-Triazol-1-yl)piperidin-1-yl)pyrimidin-2-yl)-6-(trifluoromethyl)imidazo[1,2-a]pyrazine] the figure was 0.1 to 1 µM; with `FC(F)(F)c1cn2c(-c3nccc(N4CCC(c5ccncc5)C4)n3)cnc2cn1` (centres unmarked) [IV-550, 3-(4-(3-(Pyridin-4-yl)pyrrolidin-1-yl)pyrimidin-2-yl)-6-(trifluoromethyl)imidazo[1,2-a]pyrazine], 0.1 to 1 µM. Next, `FC(F)(F)c1cn2c(-c3nccc(N4CCC(c5ccccn5)C4)n3)cnc2cn1` (centres unmarked) [IV-552, 3-(4-(3-(Pyridin-2-yl)pyrrolidin-1-yl)pyrimidin-2-yl)-6-(trifluoromethyl)imidazo[1,2-a]pyrazine]: 0.1 to 1 µM; `FC(F)(F)c1cn2c(-c3nccc(N4CCC(N5CCOCC5)C4)n3)cnc2cn1` (centres unmarked) [IV-553, 4-(1-(2-(6-(Trifluoromethyl)imidazo[1,2-a]pyrazin-3-yl)pyrimidin-4-yl)pyrrolidin-3-yl)morpholine]: 0.1 to 1 µM. Compound `CN1CCCC2(CCN(c3ccnc(-c4cnc5cnc(C(F)(F)F)cn45)n3)C2)C1=O` (centres unmarked) [IV-554, 7-Methyl-2-(2-(6-(trifluoromethyl)imidazo[1,2-a]pyrazin-3-yl)pyrimidin-4-yl)-2,7-diazaspiro[4.5]decan-6-one] displayed a Ki of 0.1 to 1 µM. With `CC1CN(c2ccnc(-c3cnc4cnc(C(F)(F)F)cn34)n2)CC1C` (centres unmarked) [IV-555, 3-(4-(3,4-Dimethylpyrrolidin-1-yl)pyrimidin-2-yl)-6-(trifluoromethyl)imidazo[1,2-a]pyrazine] the figure was 0.1 to 1 µM; with `FC(F)(F)c1cn2c(-c3nccc(N4CCC(c5ccccc5)C4)n3)cnc2cn1` (centres unmarked) [IV-556, 3-(4-(3-Phenylpyrrolidin-1-yl)pyrimidin-2-yl)-6-(trifluoromethyl)imidazo[1,2-a]pyrazine], 0.1 to 1 µM. Next, `O=C1CCCN1CC1CCN(c2ccnc(-c3cnc4cnc(C(F)(F)F)cn34)n2)C1` (centres unmarked) [IV-557, 1-((1-(2-(6-(Trifluoromethyl)imidazo[1,2-a]pyrazin-3-yl)pyrimidin-4-yl)pyrrolidin-3-yl)methyl)pyrrolidin-2-one]: 0.1 to 1 µM. With `FC(F)(F)c1cn2c(-c3nccc(N4CCC(COc5ccccc5)C4)n3)cnc2cn1` (centres unmarked) [IV-559, 3-(4-(3-(Phenoxymethyl)pyrrolidin-1-yl)pyrimidin-2-yl)-6-(trifluoromethyl)imidazo[1,2-a]pyrazine], the Ki was 0.1 to 1 µM.

Compound `O=C1NC(=O)C2(CCN(c3ccnc(-c4cnc5cnc(C(F)(F)F)cn45)n3)C2)N1` (centres unmarked) [IV-560, 7-(2-(6-(Trifluoromethyl)imidazo[1,2-a]pyrazin-3-yl)pyrimidin-4-yl)-1,3,7-triazaspiro[4.4]nonane-2,4-dione] displayed a Ki of 0.1 to 1 µM. Next, `FC(F)(F)c1cn2c(-c3nccc(N4CCCC4Cc4ccccc4)n3)cnc2cn1` (centres unmarked) [IV-561, 3-(4-(2-Benzylpyrrolidin-1-yl)pyrimidin-2-yl)-6-(trifluoromethyl)imidazo[1,2-a]pyrazine]: 0.1 to 1 µM.

The values above are taken from US10988477B2 (Merck Patent GmbH, priority 2018, dated 2021).
